From patent US11535607B2, “Isoindolines as HDAC inhibitors” (Valo Health, Inc., priority 2018, dated 2022)
Read-outs that look alike come from different tables or passages of the source.

Tests used:
full-length human HDAC11 = full-length human HDAC11 (Homo sapiens (Human), UniProt Q96DB2); assay: HDAC11 deacetylase electrophoretic mobility shift assay (Nanosyn); format: biochemical; settings: for IC50: mobility shift assay
Description: The measurement of HD AC 11 deacetylase activity was performed using an electrophoretic mobility shift assay by Nanosyn (Santa Clara, Calif.). Full length human recombinant HD AC 11 protein was expressed in baculoviral system and purified by affinity chromatography. The enzymatic reactions were assembled in 384 well plates in a total volume of 25 μL in a reaction buffer composing: 100 mM HEPES, pH 7.5, 25 mM KCl, 0.1% bovine serum albumin, 0.01% Triton X-100, 1% DMSO (from compounds), 2 μM of the fluorescently labeled peptide substrate and enzyme. The enzyme was added at a final concentration of 10 nM. The peptide substrate FAM-RHKK(tri-fluor-Ac)—NH2 was used. The compounds were tested at 12 concentrations spaced by 3× dilution intervals. Negative control samples (0%-inhibition in the absence of inhibitor) and positive control samples (100%-inhibition) were assembled in replicates of four in each assay plate. The reactions were incubated at 25° C. and quenched by the addition of 45 μL of termination buffer (100 mM HEPES, pH 7.5, 0.01% Triton X-100, 0.05% SDS).
The terminated assay plates were analyzed on LabChip® 3000 microfluidic electrophoresis instrument (Perkin Elmer/Caliper Life Sciences). The fluorescence intensity of the electrophoretically separated de-acetylated product and substrate peptide was measured. Activity in each sample was determined as the product to sum ratio (PSR): P/(S+P), where P is the peak height of the product peptide and S is the peak height of the substrate peptide. Percent inhibition (Pinh) is determined using the following equation: Pinh=(PSR0%−PSRinh)/(PSR0%−PSR100%)*100, where PSRinh, is the product sum ratio in the presence of inhibitor, PSR0% is the average product sum ration in the absence of inhibitor and PSR100% is the average product sum ratio in 100%-inhibition control samples. The IC50 values of inhibitors were determined by fitting the percent inhibition curves with 4 parameter dose-response model using XLfit 4 software.

HDAC6 = HDAC6 (Homo sapiens (Human), UniProt Q9UBN7); assay: HDAC6 electrophoretic mobility shift assay; format: biochemical; settings: mobility shift assay, Table 7; read-out: HDAC IC50, HDAC 6
HDAC1 = HDAC1 (Homo sapiens (Human), UniProt Q13547); assay: HDAC1 electrophoretic mobility shift assay; format: biochemical; settings: Table 7, read-out: HDAC IC50, HDAC 1
HDAC2 = HDAC2 (Homo sapiens (Human), UniProt Q92769); assay: HDAC2 electrophoretic mobility shift assay; format: biochemical; settings: Table 7, read-out: HDAC IC50, HDAC 2
HDAC2, sequence (Q92769 whole entry): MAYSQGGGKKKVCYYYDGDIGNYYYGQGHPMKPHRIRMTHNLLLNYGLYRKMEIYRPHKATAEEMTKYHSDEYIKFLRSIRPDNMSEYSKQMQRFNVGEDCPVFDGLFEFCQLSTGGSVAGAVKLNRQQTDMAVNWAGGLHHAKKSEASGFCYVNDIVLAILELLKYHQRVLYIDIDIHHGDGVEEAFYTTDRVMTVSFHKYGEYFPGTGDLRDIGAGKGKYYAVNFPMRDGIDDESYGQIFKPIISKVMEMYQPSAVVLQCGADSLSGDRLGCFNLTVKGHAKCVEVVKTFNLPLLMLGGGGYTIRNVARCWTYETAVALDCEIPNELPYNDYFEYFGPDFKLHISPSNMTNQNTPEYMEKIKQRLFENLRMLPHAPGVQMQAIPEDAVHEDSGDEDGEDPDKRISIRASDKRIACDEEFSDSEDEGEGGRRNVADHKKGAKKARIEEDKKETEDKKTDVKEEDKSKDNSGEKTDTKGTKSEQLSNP

HDAC3 = HDAC3 (Homo sapiens (Human), UniProt O15379); assay: HDAC3 electrophoretic mobility shift assay; format: biochemical; settings: Table 7, read-out: HDAC IC50, HDAC 3
HDAC3, sequence (O15379 whole entry): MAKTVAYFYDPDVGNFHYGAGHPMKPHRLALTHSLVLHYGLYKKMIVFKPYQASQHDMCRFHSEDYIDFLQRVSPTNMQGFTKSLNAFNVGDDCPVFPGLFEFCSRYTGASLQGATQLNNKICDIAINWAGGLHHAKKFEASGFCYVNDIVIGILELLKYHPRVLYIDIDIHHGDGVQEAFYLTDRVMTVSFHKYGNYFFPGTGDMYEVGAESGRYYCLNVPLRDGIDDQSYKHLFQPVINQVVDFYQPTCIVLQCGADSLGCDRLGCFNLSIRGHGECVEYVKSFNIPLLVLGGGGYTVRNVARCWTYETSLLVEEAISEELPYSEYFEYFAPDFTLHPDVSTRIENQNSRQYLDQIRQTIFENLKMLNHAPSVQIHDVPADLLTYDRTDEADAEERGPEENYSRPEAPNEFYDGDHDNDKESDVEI
HDAC3, sequence (Q9Y618 395-489 partner): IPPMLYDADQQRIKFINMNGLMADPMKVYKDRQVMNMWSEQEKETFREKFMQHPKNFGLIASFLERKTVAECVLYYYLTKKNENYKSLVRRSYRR

HDAC4 = HDAC4 (Homo sapiens (Human), UniProt P56524); assay: HDAC4 electrophoretic mobility shift assay; format: biochemical; settings: Table 7, read-out: HDAC IC50, HDAC 4
HDAC4, sequence (P56524 whole entry): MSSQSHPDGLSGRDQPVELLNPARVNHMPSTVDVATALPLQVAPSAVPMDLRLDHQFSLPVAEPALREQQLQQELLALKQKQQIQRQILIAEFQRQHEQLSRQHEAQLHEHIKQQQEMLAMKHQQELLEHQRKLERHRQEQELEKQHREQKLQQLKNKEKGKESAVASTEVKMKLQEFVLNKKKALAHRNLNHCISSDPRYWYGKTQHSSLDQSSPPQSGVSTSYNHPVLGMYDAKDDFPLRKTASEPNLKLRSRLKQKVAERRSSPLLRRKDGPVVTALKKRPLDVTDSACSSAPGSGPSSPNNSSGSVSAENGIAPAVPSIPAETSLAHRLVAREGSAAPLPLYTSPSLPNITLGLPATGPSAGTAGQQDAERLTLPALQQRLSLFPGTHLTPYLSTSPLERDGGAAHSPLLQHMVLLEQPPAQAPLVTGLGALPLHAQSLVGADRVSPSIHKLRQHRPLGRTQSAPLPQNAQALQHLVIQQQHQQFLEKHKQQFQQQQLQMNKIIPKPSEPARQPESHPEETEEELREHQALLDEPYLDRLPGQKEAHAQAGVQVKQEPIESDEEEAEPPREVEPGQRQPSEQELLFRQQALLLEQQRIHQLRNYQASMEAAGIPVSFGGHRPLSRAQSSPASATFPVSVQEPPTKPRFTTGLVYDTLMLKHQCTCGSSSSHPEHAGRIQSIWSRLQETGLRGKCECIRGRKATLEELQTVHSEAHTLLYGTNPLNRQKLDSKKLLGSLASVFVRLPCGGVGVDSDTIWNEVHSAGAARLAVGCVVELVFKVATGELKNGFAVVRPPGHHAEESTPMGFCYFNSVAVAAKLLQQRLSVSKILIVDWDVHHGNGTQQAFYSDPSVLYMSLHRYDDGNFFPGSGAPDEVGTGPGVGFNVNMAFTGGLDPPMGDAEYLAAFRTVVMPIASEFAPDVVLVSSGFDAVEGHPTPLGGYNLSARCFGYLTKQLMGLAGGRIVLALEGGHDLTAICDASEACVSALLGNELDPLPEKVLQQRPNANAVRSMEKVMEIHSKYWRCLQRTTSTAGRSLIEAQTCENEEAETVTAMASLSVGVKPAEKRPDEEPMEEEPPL

HDAC5 = HDAC5 (Homo sapiens (Human), UniProt Q9UQL6); assay: HDAC5 electrophoretic mobility shift assay; format: biochemical; settings: Table 7, read-out: HDAC IC50, HDAC 5
HDAC7 = HDAC7 (Homo sapiens (Human), UniProt Q8WUI4); assay: HDAC7 electrophoretic mobility shift assay; format: biochemical; settings: Table 7, read-out: HDAC IC50, HDAC 7
HDAC7, sequence (Q8WUI4 whole entry): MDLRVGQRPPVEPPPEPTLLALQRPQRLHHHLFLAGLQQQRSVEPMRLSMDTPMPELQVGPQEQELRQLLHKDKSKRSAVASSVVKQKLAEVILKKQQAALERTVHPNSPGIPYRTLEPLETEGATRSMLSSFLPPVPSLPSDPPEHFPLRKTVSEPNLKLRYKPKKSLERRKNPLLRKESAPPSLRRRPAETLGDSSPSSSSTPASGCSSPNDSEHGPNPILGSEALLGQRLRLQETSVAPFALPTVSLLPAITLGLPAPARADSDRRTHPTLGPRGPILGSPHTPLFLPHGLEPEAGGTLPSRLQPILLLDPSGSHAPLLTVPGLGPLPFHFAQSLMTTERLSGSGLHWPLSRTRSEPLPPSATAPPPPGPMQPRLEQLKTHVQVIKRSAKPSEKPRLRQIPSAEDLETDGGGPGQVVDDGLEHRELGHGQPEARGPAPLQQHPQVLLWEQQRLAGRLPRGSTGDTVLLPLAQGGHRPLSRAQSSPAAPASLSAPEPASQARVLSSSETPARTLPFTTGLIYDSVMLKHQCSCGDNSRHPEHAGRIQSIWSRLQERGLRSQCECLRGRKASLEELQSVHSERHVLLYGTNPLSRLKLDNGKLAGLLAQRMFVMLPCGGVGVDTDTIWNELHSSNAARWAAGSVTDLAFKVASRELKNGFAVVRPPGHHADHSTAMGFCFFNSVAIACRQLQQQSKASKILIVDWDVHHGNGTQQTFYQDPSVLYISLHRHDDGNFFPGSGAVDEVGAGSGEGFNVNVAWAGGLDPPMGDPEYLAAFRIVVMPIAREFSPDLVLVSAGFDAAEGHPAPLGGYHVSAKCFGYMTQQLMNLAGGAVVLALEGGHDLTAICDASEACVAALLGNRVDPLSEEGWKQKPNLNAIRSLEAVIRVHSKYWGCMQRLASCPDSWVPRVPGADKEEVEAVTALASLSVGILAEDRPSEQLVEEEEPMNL

HDAC8 = HDAC8 (Homo sapiens (Human), UniProt Q9BY41); assay: HDAC8 electrophoretic mobility shift assay; format: biochemical; settings: Table 7, read-out: HDAC IC50, HDAC 8
HDAC8, sequence (Q9BY41 whole entry, species assumed): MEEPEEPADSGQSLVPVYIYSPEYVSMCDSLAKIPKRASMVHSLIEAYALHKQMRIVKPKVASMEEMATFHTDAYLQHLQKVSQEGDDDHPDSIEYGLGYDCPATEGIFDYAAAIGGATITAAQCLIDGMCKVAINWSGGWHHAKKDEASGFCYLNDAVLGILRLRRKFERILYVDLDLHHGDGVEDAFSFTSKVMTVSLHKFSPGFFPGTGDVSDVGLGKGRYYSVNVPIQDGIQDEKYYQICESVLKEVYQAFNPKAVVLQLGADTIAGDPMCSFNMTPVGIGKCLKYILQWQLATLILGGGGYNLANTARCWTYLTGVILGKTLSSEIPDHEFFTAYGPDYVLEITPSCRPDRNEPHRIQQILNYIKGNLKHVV

HDAC9 = HDAC9 (Homo sapiens (Human), UniProt Q9UKV0); assay: HDAC9 electrophoretic mobility shift assay; format: biochemical; settings: Table 7, read-out: HDAC IC50, HDAC 9
HDAC9, sequence (Q9UKV0 whole entry): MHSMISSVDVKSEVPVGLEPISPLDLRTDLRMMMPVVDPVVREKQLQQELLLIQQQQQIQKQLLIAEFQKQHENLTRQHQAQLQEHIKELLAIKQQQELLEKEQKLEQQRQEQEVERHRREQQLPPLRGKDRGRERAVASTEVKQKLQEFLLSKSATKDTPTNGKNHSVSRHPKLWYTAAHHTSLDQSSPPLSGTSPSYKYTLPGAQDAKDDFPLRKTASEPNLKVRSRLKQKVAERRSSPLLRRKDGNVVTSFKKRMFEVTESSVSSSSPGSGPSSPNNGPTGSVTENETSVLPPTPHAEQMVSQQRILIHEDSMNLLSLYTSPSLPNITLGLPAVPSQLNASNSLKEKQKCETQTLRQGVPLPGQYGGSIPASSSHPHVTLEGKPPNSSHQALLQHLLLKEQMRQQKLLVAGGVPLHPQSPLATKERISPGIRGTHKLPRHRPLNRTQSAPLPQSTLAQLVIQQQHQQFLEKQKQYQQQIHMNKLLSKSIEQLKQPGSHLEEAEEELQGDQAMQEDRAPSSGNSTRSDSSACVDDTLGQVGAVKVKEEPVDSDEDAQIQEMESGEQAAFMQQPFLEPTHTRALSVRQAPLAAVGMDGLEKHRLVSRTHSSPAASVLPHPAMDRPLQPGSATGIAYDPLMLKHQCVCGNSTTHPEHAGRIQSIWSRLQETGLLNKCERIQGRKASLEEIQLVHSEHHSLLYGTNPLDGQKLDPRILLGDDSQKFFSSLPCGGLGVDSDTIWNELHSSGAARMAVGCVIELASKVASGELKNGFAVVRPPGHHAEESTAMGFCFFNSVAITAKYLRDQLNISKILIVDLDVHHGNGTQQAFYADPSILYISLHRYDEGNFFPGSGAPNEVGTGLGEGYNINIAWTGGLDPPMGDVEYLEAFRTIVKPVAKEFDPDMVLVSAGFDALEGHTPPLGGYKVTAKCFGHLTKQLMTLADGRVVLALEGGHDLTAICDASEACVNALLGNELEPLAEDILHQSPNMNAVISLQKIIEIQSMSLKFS

HDAC10 = HDAC10 (Homo sapiens (Human), UniProt Q969S8); assay: HDAC10 electrophoretic mobility shift assay; format: biochemical; settings: Table 7, read-out: HDAC IC50, HDAC 10
[1] = In vitro intrinsic clearance after incubation with mouse liver microsomes; format: in vitro ADME; settings: Table 6
HDAC11 = HDAC11 (Homo sapiens (Human), UniProt Q96DB2); assay: Lipophilic efficiency (pIC50 HDAC11 - clogD7.4); settings: pIC50 HDAC11 - clogD7.4, Table 6
HDAC11, sequence (Q96DB2 whole entry): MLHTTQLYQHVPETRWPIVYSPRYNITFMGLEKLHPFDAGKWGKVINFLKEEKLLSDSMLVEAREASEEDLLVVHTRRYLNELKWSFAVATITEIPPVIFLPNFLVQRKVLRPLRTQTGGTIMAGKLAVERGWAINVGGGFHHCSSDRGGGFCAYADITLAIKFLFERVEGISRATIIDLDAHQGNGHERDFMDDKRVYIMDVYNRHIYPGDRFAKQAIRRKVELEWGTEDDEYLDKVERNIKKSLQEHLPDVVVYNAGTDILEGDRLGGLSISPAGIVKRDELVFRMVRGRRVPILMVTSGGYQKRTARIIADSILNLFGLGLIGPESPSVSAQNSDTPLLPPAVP

[2] = Kinetic solubility at pH 7.4; format: physicochemical; settings: aqueous buffer, kinetic from dmso stock
[3] = system: other 10 members of the HDAC family; assay: HDAC family selectivity profile, electrophoretic mobility shift assays; format: biochemical, human; settings: HDAC 1-11 profile
[4] = target: HDAC11 fused to Nanoluc luciferase (Homo sapiens (Human), UniProt Q96DB2); assay: BRET target engagement cell assay
HDAC11 fused to Nanoluc luciferase, sequence (Q96DB2 whole entry, the tested form may be a part): as the sequence (Q96DB2 whole entry) above

full-length human HDAC11, sequence (Q96DB2 whole entry): as above

SMILES: CC1(C)c2cccc(C(N)=O)c2CN1c1cnc(C(F)(F)F)cn1 [Compound 50-1, 1,1-Dimethyl-2-(5-(trifluoromethyl)pyrazin-2-yl)isoindoline-4-carboxamide]
- HDAC11 potency, in words (full-length human HDAC11; comparison with parent or lead compound): loss of all HDAC11 activity
- IC50 (full-length human HDAC11; Table 6, read-out: HDAC11 IC50): > 1000 nM
- IC50 (full-length human HDAC11; Table 7, read-out: HDAC IC50, HDAC 11): > 1000 nM
- IC50 (HDAC6): > 1000 nM
- IC50 (HDAC1): > 1000 nM
- IC50 (HDAC2): > 1000 nM
- IC50 (HDAC3): > 1000 nM
- IC50 (HDAC4): > 1000 nM
- IC50 (HDAC5): > 1000 nM
- IC50 (HDAC7): > 1000 nM
- IC50 (HDAC8): > 1000 nM
- IC50 (HDAC9): > 1000 nM
- IC50 (HDAC10): > 1000 nM
- microsomal CLint [1]: < 50 µL/min/mg
- LipE (HDAC11): + (indicates LipE≤5.5)
- solubility [2]: ≤ 30 µM
- activity against all HDACs, in words [3]: inactive against all HDACs
- IC50 [4]: > 1000 nM
